From patent US5158952A, “3-[2-[4-(6-fluoro-1,2-benzisoxozol-3-yl)-1-piperidinyl]ethyl]-6,7,8,9 tetrahydro-9-hydroxy-2-methyl-4H-pyrido [1,2-a]pyrimidin-4-one, compositions and method of use” (Janssen Pharmaceutica N.V., priority 1989, dated 1992)

Tests used:
Assay type in all cases: in vivo
dopamine [1] = assay: combined apomorphine (APO), tryptamine (TRY) and norepinephrine (NOR) test in rats: apomorphine; conditions: for ED50: Rattus norvegicus
Text: (§1) The antipsychotic activity of the subject compounds is evidenced by the experimental data obtained in at least one of two different test procedures, viz. the combined apomorphine (APO), tryptamine (TRY) and norepinephrine (NOR) test in rats, and the apomorphine test in dogs. Said combined apomorphine, tryptamine and norepinephrine test is described in Ach. int. Pharmacodyn., 227, 238-253 (1977) and provides an empirical evaluation of the relative specificity with which drugs may effect particular neurotransmitter systems centrally (CNS) as well as peripherally. […] Said apomorphine test in dogs is described in Arzneim.-Forsch. (Drug Res.), 9, 765-767 (1959) and provides a measure of the duration of action of the tested compounds.

serotonin [2] = assay: combined APO, TRY, NOR test in rats: tryptamine convulsions (central); conditions: for ED50: Rattus norvegicus
Text: as §1

serotonin [3] = assay: combined APO, TRY, NOR test in rats: tryptamine hyperaemia (peripheral); conditions: for ED50: Rattus norvegicus
Text: as §1

norepinephrine = assay: combined APO, TRY, NOR test in rats: norepinephrine; conditions: for ED50: Rattus norvegicus
Text: as §1

dopamine [4] = assay: apomorphine test in dogs (duration of action); conditions: for ED50: Canis lupus familiaris; for (APO)-dog test, ED50, 4 hr: 240 min; for (APO)-dog test, ED50, 16 hr: 960 min
Text: The compounds of formula (I) show the additional advantage of being eliminated rather slowly from the body and thus of being long acting. This can be evidenced, for example, by measuring the plasma levels after oral administration to dogs and by the long acting antiemetic effect exerted by the present compounds on dogs challenged with the dopamine agonist apomorphine. Especially the compounds of formula (I) wherein R^3 is a higher alkylcarbonyloxy radical have a long duration of action. […] Consequently, the present compounds allow for a more efficient therapy: the slow elimination facilitates maintaining a stable plasma concentration at a non-toxic, effective level and the reduction in the number of administrations may be expected to result in better compliance of the subject to be treated with the prescribed medication.
as §1

[5] = 1 h, read-out: (APO)-dog test, ED50, 1 hr

Structure (SMILES) | ED50 (dopamine [1]) [mg/kg] | ED50 (serotonin [2]) [mg/kg] | ED50 (serotonin [3]) [mg/kg] | ED50 (norepinephrine) [mg/kg] | ED50 (dopamine [4]; [5]) [mg/kg] | ED50 (dopamine [4]; 4 h, read-out: (APO)-dog test, ED50, 4 hr) [mg/kg] | ED50 (dopamine [4]; 16 h, read-out: (APO)-dog test, ED50, 16 hr) [mg/kg] | (APO) ED50 (dopamine [1]) [mg/kg] | (TRY)-convulsions ED50 (serotonin [2]) [mg/kg] | (TRY)-hyperaemia ED50 (serotonin [3]) [mg/kg] | (NOR) ED50 (norepinephrine) [mg/kg] | (APO)-dog test, ED50, 1 hr (dopamine [4]; 1 hr, 60 min) [mg/kg] | (APO)-dog test, ED50, 4 hr (dopamine [4]) [mg/kg] | (APO)-dog test, ED50, 16 hr (dopamine [4]) [mg/kg]
Cc1nc2n(c(=O)c1CCN1CCC(c3noc4cc(F)ccc34)CC1)CCCC2O (stereo not drawn) [Compound 1, 3-[2-[4-(6-fluoro-1,2-benzisoxazol-3-yl)-1-piperidinyl]ethyl]-6,7,8,9-tetrahydro-9-hydroxy-2-methyl-4H-pyrido[1,2-a]pyrimidin4-one] | 0.25 | 0.31 | 0.002 | 0.08 | 0.015 | 0.015 | 0.015 |  |  |  |  |  |  | 
CC(=O)OC1CCCn2c1nc(C)c(CCN1CCC(c3noc4cc(F)ccc34)CC1)c2=O (stereo not drawn) [Compound 4, 3-[2-[4-(6-fluoro-1,2-benzisoxazol-3-yl)-1-piperidinyl]ethyl]-6,7,8,9-tetrahydro-2-methyl-4-oxo-4H-pyrido[1,2-a]pyrimidin-9-ol acetate(ester)] | 0.31 | 0.08 | 0.00031 |  | 0.015 |  |  |  |  |  |  |  |  | 
Cc1nc2n(c(=O)c1CCN1CCC(c3noc4cc(F)ccc34)CC1)CCCC2O (single isomer, unassigned; (-)) [Compound 3, (-)-3-[2-[4-(6-fluoro-1,2-benzisoxazol-3-yl)-1-piperidinyl]-ethyl]-6,7,8,9-tetrahydro-9-hydroxy-2-methyl-4H-pyrido[1,2-a]-pyrimidin-4-one] |  |  |  |  |  |  |  | 0.31 | 0.31 | 0.00063 | 0.63 | 0.008 | 0.007 | 0.015
Cc1nc2n(c(=O)c1CCN1CCC(c3noc4cc(F)ccc34)CC1)CCCC2O (single isomer, unassigned; (+)) [Compound 2, (+)-3-[2-[4-(6-fluoro-1,2-benzisoxazol-3-yl)-1-piperidinyl]ethyl]-6,7,8,9-tetrahydro-9-hydroxy-2-methyl-4H-pyrido[1,2-a]-pyrimidin-4-one] | 0.31 |  |  | 1.25 | 0.015 |  |  |  | 0.08 | 0.00031 |  |  | 0.03 | 0.06
CCCC(=O)OC1CCCn2c1nc(C)c(CCN1CCC(c3noc4cc(F)ccc34)CC1)c2=O (stereo not drawn) [Compound 5, [3-[2-[4-(6-fluoro-1,2-benzisoxazol-3-yl)-1-piperidinyl]ethyl]-6,7,8,9-tetrahydro-2-methyl-4-oxo-4H-pyrido[1,2-a]pyrimidin-9-yl]butanoate] | 0.31 | 0.31 | 0.00125 | 0.16 | 0.008 |  |  |  |  |  |  |  |  | 
